Test system: MDA-MB-468 spheroids with HUVEC/MSC, viability
Assay: Anticancer human tumor MDA-MB-468 cell line growth inhibition [PI3K];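 further: spheroids exposed to agents for seven days before readout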;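 on viability, T/C: 100% = DMSO vehicle control viability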
Conditions: for IC50: curve of first compound; for viability, T/C: stronger effect = lower value
In short: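 Tumor cells grown as multi-cell spheroids with HUVEC endothelial cells and MSC fibroblast-like stroma were treated with targeted agents combined with inavolisib, alpelisib, duvelisib or copanlisib. Doses fell in half-log steps from near clinical Cmax, else from 10 microM. Viability was measured.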

[1] = second compound 0.0316 µM, first compound 0.0316 µM
[2] = second compound 0.0316 µM, first compound 0.1 µM
[3] = second compound 0.0316 µM, first compound 0.316 µM
[4] = second compound 0.0316 µM, first compound 1 µM
[5] = second compound 0.0316 µM, first compound 3.16 µM
[6] = second compound 0.0316 µM, first compound 10 µM
[7] = second compound 0.1 µM, first compound 0.0316 µM
[8] = second compound 0.1 µM, first compound 0.1 µM
[9] = second compound 0.1 µM, first compound 0.316 µM
[10] = second compound 0.1 µM, first compound 1 µM
[11] = second compound 0.1 µM, first compound 3.16 µM
[12] = second compound 0.1 µM, first compound 10 µM
[13] = second compound 0.316 µM, first compound 0.0316 µM
[14] = second compound 0.316 µM, first compound 0.1 µM
[15] = second compound 0.316 µM, first compound 0.316 µM
[16] = second compound 0.316 µM, first compound 1 µM
[17] = second compound 0.316 µM, first compound 3.16 µM
[18] = second compound 0.316 µM, first compound 10 µM
[19] = second compound 1 µM, first compound 0.0316 µM
[20] = second compound 1 µM, first compound 0.1 µM
[21] = second compound 1 µM, first compound 0.316 µM
[22] = second compound 1 µM, first compound 1 µM
[23] = second compound 1 µM, first compound 3.16 µM
[24] = second compound 1 µM, first compound 10 µM
[25] = second compound 3.16 µM, first compound 0.0316 µM
[26] = second compound 3.16 µM, first compound 0.1 µM
[27] = second compound 3.16 µM, first compound 0.316 µM
[28] = second compound 3.16 µM, first compound 1 µM
[29] = second compound 3.16 µM, first compound 3.16 µM
[30] = second compound 3.16 µM, first compound 10 µM
[31] = second compound 10 µM, first compound 0.0316 µM
[32] = second compound 10 µM, first compound 0.1 µM
[33] = second compound 10 µM, first compound 0.316 µM
[34] = second compound 10 µM, first compound 1 µM
[35] = second compound 10 µM, first compound 3.16 µM
[36] = second compound 10 µM, first compound 10 µM

Cn1ncc(Cl)c1-c1cc(C(=O)NC(CN)Cc2cccc(F)c2)sc1Cl (stereo unspecified) + CC(Nc1ncnc2nc[nH]c12)c1cc2cccc(Cl)c2c(=O)n1-c1ccccc1
IC50 (second compound 0.0316 µM): 0.293 µM
IC50 (second compound 0.1 µM): 0.338 µM
IC50 (second compound 0.316 µM): 0.331 µM
IC50 (second compound 1 µM): 0.242 µM
IC50 (second compound 3.16 µM): 0.0442 µM
IC50 (second compound 10 µM): < 0.0316 µM
viability, T/C [1]: 83.2%
viability, T/C [2]: 73.1%
viability, T/C [3]: 45.6%
viability, T/C [4]: 32.3%
viability, T/C [5]: 26%
viability, T/C [6]: 17.7%
viability, T/C [7]: 84.6%
viability, T/C [8]: 65.5%
viability, T/C [9]: 50.3%
viability, T/C [10]: 35.9%
viability, T/C [11]: 29.7%
viability, T/C [12]: 16.1%
viability, T/C [13]: 68.7%
viability, T/C [14]: 63.4%
viability, T/C [15]: 51.1%
viability, T/C [16]: 33.9%
viability, T/C [17]: 29.1%
viability, T/C [18]: 18.6%
viability, T/C [19]: 58.4%
viability, T/C [20]: 60.1%
viability, T/C [21]: 47%
viability, T/C [22]: 32.9%
viability, T/C [23]: 27.8%
viability, T/C [24]: 17.9%
viability, T/C [25]: 51.7%
viability, T/C [26]: 45.4%
viability, T/C [27]: 40.8%
viability, T/C [28]: 32.6%
viability, T/C [29]: 25.9%
viability, T/C [30]: 20.2%
viability, T/C [31]: 40.4%
viability, T/C [32]: 41.6%
viability, T/C [33]: 36.3%
viability, T/C [34]: 28%
viability, T/C [35]: 23.8%
viability, T/C [36]: 15.5%

Cn1nccc1Nc1nccc(-c2ccn(C(CO)c3ccc(Cl)c(F)c3)c(=O)c2)n1 (stereo unspecified) + CC(Nc1ncnc2nc[nH]c12)c1cc2cccc(Cl)c2c(=O)n1-c1ccccc1
IC50 (second compound 0.0316 µM): > 10 µM
IC50 (second compound 0.1 µM): > 10 µM
IC50 (second compound 0.316 µM): > 10 µM
IC50 (second compound 1 µM): > 10 µM
IC50 (second compound 3.16 µM): > 10 µM
IC50 (second compound 10 µM): < 0.0316 µM
viability, T/C [1]: 74.2%
viability, T/C [2]: 84.5%
viability, T/C [3]: 79.5%
viability, T/C [4]: 79.6%
viability, T/C [5]: 79.4%
viability, T/C [6]: 78.3%
viability, T/C [7]: 80.1%
viability, T/C [8]: 86.1%
viability, T/C [9]: 77.8%
viability, T/C [10]: 96.7%
viability, T/C [11]: 83.8%
viability, T/C [12]: 73.5%
viability, T/C [13]: 73.1%
viability, T/C [14]: 69.3%
viability, T/C [15]: 68.4%
viability, T/C [16]: 73%
viability, T/C [17]: 78.5%
viability, T/C [18]: 78.9%
viability, T/C [19]: 65.7%
viability, T/C [20]: 59.8%
viability, T/C [21]: 62%
viability, T/C [22]: 71.8%
viability, T/C [23]: 73.4%
viability, T/C [24]: 72%
viability, T/C [25]: 56.6%
viability, T/C [26]: 55.1%
viability, T/C [27]: 49%
viability, T/C [28]: 63.2%
viability, T/C [29]: 54.5%
viability, T/C [30]: 48.8%
viability, T/C [31]: 33.8%
viability, T/C [32]: 34.8%
viability, T/C [33]: 31.1%
viability, T/C [34]: 32.2%
viability, T/C [35]: 39.2%
viability, T/C [36]: 27.6%

Cn1ncnc1[C@H]1c2n[nH]c(=O)c3cc(F)cc(c23)N[C@@H]1c1ccc(F)cc1 + CC(Nc1ncnc2nc[nH]c12)c1cc2cccc(Cl)c2c(=O)n1-c1ccccc1
IC50 (second compound 0.0316 µM): > 0.1 µM
IC50 (second compound 0.1 µM): > 0.1 µM
IC50 (second compound 0.316 µM): 0.0962 µM
IC50 (second compound 1 µM): 0.0725 µM
IC50 (second compound 3.16 µM): 0.037 µM
IC50 (second compound 10 µM): < 0.000316 µM
viability, T/C (second compound 0.0316 µM, first compound 0.000316 µM): 84.5%
viability, T/C (second compound 0.0316 µM, first compound 0.001 µM): 90.7%
viability, T/C (second compound 0.0316 µM, first compound 0.00316 µM): 86.9%
viability, T/C (second compound 0.0316 µM, first compound 0.01 µM): 78.1%
viability, T/C [1]: 68.1%
viability, T/C [2]: 51.2%
viability, T/C (second compound 0.1 µM, first compound 0.000316 µM): 78.3%
viability, T/C (second compound 0.1 µM, first compound 0.001 µM): 95.1%
viability, T/C (second compound 0.1 µM, first compound 0.00316 µM): 85%
viability, T/C (second compound 0.1 µM, first compound 0.01 µM): 66%
viability, T/C [7]: 65.3%
viability, T/C [8]: 51.7%
viability, T/C (second compound 0.316 µM, first compound 0.000316 µM): 73.2%
viability, T/C (second compound 0.316 µM, first compound 0.001 µM): 74.5%
viability, T/C (second compound 0.316 µM, first compound 0.00316 µM): 73%
viability, T/C (second compound 0.316 µM, first compound 0.01 µM): 69.9%
viability, T/C [13]: 64%
viability, T/C [14]: 49.5%
viability, T/C (second compound 1 µM, first compound 0.000316 µM): 59.3%
viability, T/C (second compound 1 µM, first compound 0.001 µM): 74%
viability, T/C (second compound 1 µM, first compound 0.00316 µM): 60.1%
viability, T/C (second compound 1 µM, first compound 0.01 µM): 64.5%
viability, T/C [19]: 57.8%
viability, T/C [20]: 46.8%
viability, T/C (second compound 3.16 µM, first compound 0.000316 µM): 55.5%
viability, T/C (second compound 3.16 µM, first compound 0.001 µM): 52.1%
viability, T/C (second compound 3.16 µM, first compound 0.00316 µM): 53.4%
viability, T/C (second compound 3.16 µM, first compound 0.01 µM): 52.8%
viability, T/C [25]: 51.9%
viability, T/C [26]: 38.7%
viability, T/C (second compound 10 µM, first compound 0.000316 µM): 39.4%
viability, T/C (second compound 10 µM, first compound 0.001 µM): 37.8%
viability, T/C (second compound 10 µM, first compound 0.00316 µM): 40.6%
viability, T/C (second compound 10 µM, first compound 0.01 µM): 36.9%
viability, T/C [31]: 35.2%
viability, T/C [32]: 26.9%

Reference: PubChem BioAssay AID1963960 (Molecular Pharmacology Branch, DTP, NCI, 2024)
